Measurements taken from the Bradley open melting point set (2014).
Several values for one entry are separate records, joined by “and”; a condition that tells them apart may be missing. Equal values may be shown once. Where a name gives a salt, the structure may show the parent alone.

melting point | Compound
34 °C | COc1cc(Cl)cc(OC)c1 [1-chloro-3,5-dimethoxybenzene]
134 °C | Oc1cccc(O)c1O [1,2,3-trihydroxybenzene]
50 °C | N=C(N)N [Guanidine]
34 °C | N#CCc1cccc2ccccc12 [1-naphthylacetonitrile]
96.5 °C | CCCOC(=O)c1ccc(O)cc1 [propylparaben]
187 °C | O=C(O)c1ccc([N+](=O)[O-])o1 [5-nitro-2-furoic acid]
123 °C and 122 °C | Oc1ccc2ccccc2c1 [2-naphthol]
152 °C | O=Cc1coc2ccccc2c1=O [chromone-3-carboxaldehyde]
69 °C | Cc1ccc(S(=O)(=O)Cl)cc1 [p-toluenesulfonyl_chloride]
69 °C | CCCCOC(=O)c1ccc(O)cc1 [Butyl 4-hydroxybenzoate]
29 °C | COc1cccc(C)c1C [2,3-dimethylanisole]
111 °C | Oc1cccc(O)c1 [Resorcinol]
220 °C | NC(=O)CCCCC(N)=O [Adipamide]
95.5 °C | Cc1cc(C=O)c(C)n1-c1cc(C(F)(F)F)cc(C(F)(F)F)c1 [OSM-S-36]
222 °C | C[C@]12CCC(=O)C=C1CC[C@@H]1[C@@H]2C(=O)C[C@@]2(C)[C@H]1CC[C@]2(O)C(=O)CO [cortisone]
8 °C | CCOC(=O)c1ccc(OC)cc1 [ethyl 4-methoxybenzoate]
19 °C | ClC(c1ccccc1)c1ccccc1 [benzhydryl chloride]
156 °C | COc1ccc2[nH]c([S+]([O-])Cc3ncc(C)c(OC)c3C)nc2c1 (stereo unspecified) [Omeprazole]
128 °C | COc1ccc(C(=O)CC#N)cc1 [4-methoxybenzoylacetonitrile]
103 °C | Nc1ccc(Cl)c([N+](=O)[O-])c1 [4-chloro-3-nitroaniline]

melting point | Compound
269 °C | C1[C@H]3C[C@@H]2C[C@@H](C[C@H]1C2)C3 [Adamantane]
8 °C | C[C@@H]1CCCC[C@@H]1O (relative stereo) [cis-2-methylcyclohexanol]
177 °C | CC12CCC(CC1=O)C2(C)C (stereo unspecified) [camphor]
3 °C | COC(=O)OC [dimethyl_carbonate]
-25 °C | Cc1cccc(C)c1C [1,2,3-Trimethylbenzene]
-134 °C | C/C=C\C(C)C [4-methyl-cis-2-pentene]
253 °C | OB(O)c1c(F)c(F)c(F)c(F)c1F [2,3,4,5,6-pentafluorobenzeneboronic acid]
308 °C | CC(C)[C@H](N)C(=O)O [L-Valine]
-63 °C | CC(Br)Br [1,1-dibromoethane]
40 °C | Cc1ccc2sc(C)nc2c1 [2,5-dimethylbenzothiazole]
156 °C | Oc1ccccc1/C=N/n1c(S)nnc1C(F)(F)F
-103 °C | CCCCOCC [ethyl_butyl_ether]
223 °C | O=C(Nc1ccc([N+](=O)[O-])cc1Cl)c1cc(Cl)ccc1O [5-Chloro-N-(2-chloro-4-nitrophenyl)-2-hydroxybenzamide]
-90 °C | CC#CCCC [2-hexyne]
-30 °C | CC(C)CC(=O)O [3-methylbutanoic_acid]
114 °C and 116 °C | c1ccc2c(c1)Cc1ccccc1-2 [fluorene]
110 °C | COc1cc(N)c(Cl)cc1C(=O)NC1CCN(CCCOc2ccc(F)cc2)CC1OC (stereo unspecified) [Cisapride]
-38 °C | CC(C)(C)I [2-iodo-2-methylpropane]
112 °C | CCC(C)NC(=O)C(C(F)(F)F)C(F)(F)F (stereo unspecified)
219 °C | COC1=CC(=O)CC(C)C12Oc1c(Cl)c(OC)cc(OC)c1C2=O (stereo unspecified) [griseofulvin]

melting point | Compound
254 °C | Oc1ccc(/C=C/c2cc(O)cc(O)c2)cc1 [resveratrol]
142 °C | O=Cc1ccc(O)c([N+](=O)[O-])c1 [4-hydroxy-3-nitrobenzaldehyde]
144 °C | CC(C)[C@H](NC(=O)OCC1c2ccccc2-c2ccccc21)C(=O)O [N-fmoc-L-valine]
71 °C | C=CCNC(N)=S [1-Allylthiourea]
58 °C | CCCCOC(=O)c1ccc(N)cc1 [butyl p-aminobenzoate]
204 °C | COc1cc(NS(=O)(=O)c2ccc(N)cc2)nc(OC)n1 [Sulfadimethoxine]
-19 °C | COC(=O)/C=CC(=O)OC [dimethyl maleate]
194 °C | CN(C)c1ccc(C(C(=O)NC(C)(C)C)N(C)C(=O)CCCc2ccc3ccc4cccc5ccc2c3c45)cc1 (stereo unspecified) [Ugi product 171K (UC)]
208 °C | O=C(O)c1ccc(Cl)c(Cl)c1 [3,4-dichlorobenzoic_acid]
153 °C | Cc1ccc(O)c(C(=O)O)c1 [5-methylsalicylic acid]
121 °C | O=C1/C(=C\c2ccco2)SC(=S)N1CN1CCCCC1
116 °C | O=C(O)CSc1ccc(C(F)(F)F)cc1 [[4-(trifluoromethyl)phenylthio]acetic acid]
33 °C | CC(O)c1c(F)c(F)c(F)c(F)c1F (stereo unspecified) [1-(pentafluorophenyl)ethanol]
185 °C | OB(O)c1ccccc1O [2-hydroxybenzeneboronic acid]
203 °C | CC(=O)Nc1nccs1 [2-acetamidothiazole]
250 °C | CC(=O)NC1C2CCC(C)(C1NC(C)=O)C2(C)C (stereo unspecified)
61 °C | COC(=O)CS(C)(=O)=O [methyl methylsulfonylacetate]
-25 °C | Cc1cccc(C)c1C [1,2,3-trimethylbenzene]

Compound | melting point
N#Cc1cccc(C=O)c1 [3-cyanobenzaldehyde] | 77 °C
O=C1c2ccccc2C(=O)c2ccccc21 [9,10-anthraquinone] | 285 °C
CC(N)CCc1ccccc1 (stereo unspecified) [3-amino-1-phenylbutane] | -50 °C
CC(=O)c1ccccc1C#N [o-acetyl_benzonitrile] | 48 °C
Clc1ccc(C(c2ccc(Cl)cc2)C(Cl)(Cl)Cl)cc1 [DDT] | 109 °C (4×) and 108 °C (2×)
O=C1C=C(Cl)C(=O)C=C1Cl [2,5-Dichloro-1,4-benzoquinone] | 162 °C
C=C(Br)CC1(C(C)CC)C(=O)NC(=O)NC1=O (stereo unspecified) [butallylonal] | 132 °C
O=C1c2ccccc2C(=O)N1OCCCCBr [N-(4-bromobutoxy)phthalimide] | 71 °C
Cl\C1=C(/Cl)C2(Cl)C3C4CC(C3C1(Cl)C2(Cl)Cl)C5OC45 (stereo unspecified) [endrin] | 210 °C
CN1CC[C@@H](c2ccc(F)cc2)[C@H](CO)C1 [(3S,4R)-4-(4-fluorophenyl)-1-methyl-3-piperidinemethanol] | 96 °C
ClCCCCCCl [1,5-dichloropentane] | -72 °C
O=C(O)CCCCCCCCCCCCCCCO [16-hydroxyhexadecanoic acid] | 99 °C
ClC(Cl)Br [bromodichloromethane] | -55 °C
Cl[C@H]1[C@H](Cl)[C@@H](Cl)[C@@H](Cl)[C@H](Cl)[C@H]1Cl [lindane] | 113 °C and 112 °C
C/C=C/C=O [(2E)-But-2-enal] | -76 °C
Nc1ccc(-c2ccccc2)cc1 [4-aminobiphenyl] | 54 °C
Cc1ccc(N)c(C)c1 [2,4-Dimethylaniline] | 16 °C
CCI [iodoethane] | -108 °C
